Key:
Assay type in all cases: in vivo
Plutella xylostella = test: B.6 Diamond Back Moth, cabbage leaf disc dip test; details: foliar, 3rd instar larvae, 72 hours after treatment, read-out: mortality in comparison with untreated controls
Experimental: The active compound was dissolved at the desired concentration in a mixture of 1:1 (vol:vol) distilled water:acetone. Surfactant (Kinetic) was added at a rate of 0.01% (vol/vol). The test solution was prepared at the day of use. Cabbage leaf discs (60 mm in diameter) were dipped in test solution and air-dried. Treated leaves were placed in petri dishes lined with moistened filter paper and inoculated with ten 3rd instar larvae. Mortality was recorded 72 hours after treatment. Feeding damages were also recorded using a scale of 0-100%.

Dichromothrips corbetti = test: B.7 Orchid Thrips, floral-immersion test; details: adult thrips, 72 hours after treatment, read-out: mortality in comparison with untreated controls
Experimental: Dichromothrips corbetti adults used for bioassay were obtained from a colony maintained continuously under laboratory conditions. For testing purposes, the test compound was diluted in a 1:1 mixture of acetone:water (vol:vol), plus Kinetic at a rate of 0.01% v/v.
Thrips potency of each compound was evaluated by using a floral-immersion technique. Each orchid petal was dipped into treatment solution and allowed to dry in Petri dishes. Treated petals were placed into individual re-sealable plastic along with about 20 adult thrips. All test arenas were held under dark condition and a temperature of about 28° C. for duration of the assay. The percent mortality was recorded 72 hours after treatment.

Nezara viridula = test: B.8 Green Soldier Stink Bug, soybean pod spray test; details: 120 h, late 3rd instar, after 5 days, read-out: mortality in comparison with untreated controls
Experimental: The active compound was dissolved at the desired concentration in a mixture of 1:1 (vol:vol) distilled water:aceteone. Surfactant (Kinetic) was added at a rate of 0.01% (vol/vol). The test solution was prepared at the day of use. Soybean pods were placed in 90×50 mm glass Petri dishes lined with moistened filter paper and inoculated with ten late 3rd instar N. viridula. Using a hand atomizer, an approximately 2 ml solution was sprayed into each Petri dish. Treated setup was kept at about 25-26° C. and relative humidity of about 65-70%. Percent mortality was recorded after 5 days.

Tetranychus kanzawai = test: B.10 Red Spider Mite, cowpea bean spray test; details: 72 hours after treatment, read-out: mortality in comparison with untreated controls
Experimental: The active compound was dissolved at the desired concentration in a mixture of 1:1 (vol:vol) distilled water:acetone. Add surfactant (Kinetic) was added at a rate of 0.01% (vol/vol). The test solution was prepared at the day of use. Potted cowpea beans of 4-5 days of age were cleaned with tap water and sprayed with I-2 ml of the test solution using air driven DeVilbiss® hand atomizer at 20-30 psi (≈1,38 to 2,07 bar). The treated plants were allowed to air dry and afterwards inoculated with 30 or more mites by clipping a cassava leaf section from rearing population. Treated plants were placed inside a holding room at about 25-26° C. and about 65-70% relative humidity. Percent mortality was assessed 72 hours after treatment.

Spodoptera eridania = test: B.11 Southern Armyworm 2nd instar larvae, lima bean foliar spray test; details: 96 h, 4 days after treatment, read-out: mortality in comparison with untreated controls
Experimental: The active compounds were formulated by a Tecan liquid handler in 100% cyclohexanone as a 10′000 ppm solution supplied in tubes. The 10′000 ppm solution was serially diluted in 100% cyclohexanone to make interim solutions. These served as stock solutions for which final dilutions were made by the Tecan in 50% acetone:50% water (v/v) into 10 or 20 ml glass vials. A nonionic surfactant (Kinetic®) was included in the solution at a volume of 0.01% (v/v). The vials were then inserted into an automated electrostatic sprayer equipped with an atomizing nozzle for application to plants/insects. Lima bean plants (variety Sieva) were grown 2 plants to a pot and selected for treatment at the 1st true leaf stage. Test solutions were sprayed onto the foliage by an automated electrostatic plant sprayer equipped with an atomizing spray nozzle. The plants were dried in the sprayer fume hood and then removed from the sprayer. Each pot was placed into perforated plastic bags with a zip closure. Ten to 11 armyworm larvae were placed into the bag and the bags zipped closed. Test plants were maintained in a growth room at about 25° C. and about 20-40% relative humidity for 4 days, avoiding direct exposure to fluorescent light (14:10 light:dark photo-period) to prevent trapping of heat inside the bags. Mortality and reduced feeding were assessed 4 days after treatment, compared to untreated control plants.

Bemisia argentifolii = test: B.12 Silverleaf Whitefly (adults), cotton plant spray test; details: 72 h, 3 days after treatment, read-out: mortality in comparison with untreated controls
Experimental: The active compounds were formulated by a Tecan liquid handler in 100% cyclohexanone as a 10,000-ppm solution supplied in tubes. The 10,000-ppm solution was serially diluted in 100% cyclohexanone to make interim solutions. These served as stock solutions for which final dilutions were made by the Tecan in 50% acetone:50% water (v/v) into 5 or 10 ml glass vials. A nonionic surfactant (Kinetic®) was included in the solution at a volume of 0.01% (v/v). The vials were then inserted into an automated electrostatic sprayer equipped with an atomizing nozzle for application to plants/insects. Cotton plants at the cotyledon stage (one plant per pot) were sprayed by an automated electrostatic plant sprayer equipped with an atomizing spray nozzle. The plants were dried in the sprayer fume hood and then removed from the sprayer. Each pot was placed into a plastic cup and about 10 to 12 whitefly adults (approximately 3-5 days old) were introduced. The insects were collected using an aspirator and a nontoxic Tygon® tubing connected to a barrier pipette tip. The tip, containing the collected insects, was then gently inserted into the soil containing the treated plant, allowing insects to crawl out of the tip to reach the foliage for feeding. Cups were covered with a reusable screened lid. Test plants were maintained in a growth room at about 25° C. and about 20-40% relative humidity for 3 days, avoiding direct exposure to fluorescent light (14:10 light:dark photoperiod) to prevent trapping of heat inside the cup. Mortality was assessed 3 days after treatment, compared to untreated control plants.

[1] = system: Trialeurodes vaporarirorum; test: B.2 Greenhouse Whitefly, microtiter plate eggplant leaf disk test; details: foliar, 144 h, mortality of hatched crawlers, 6 days, read-out: mortality in comparison with untreated controls
Experimental: For evaluating control of Greenhouse Whitefly, the test unit consisted of 96-well-microtiter plates containing a leaf disk of eggplant leaf disk with Whitefly eggs. The compounds or mixtures were formulated using a solution containing 75% water and 25% DMSO. Different concentrations of formulated were sprayed onto the insect diet at 2.5 μl, using a custom-built micro atomizer, at two replications. After application, microtiter plates were incubated at 23±1° C., 65±5% RH for 6 days. Mortality of hatched crawlers was then visually assessed.

CCOC(=O)N(C1=NOC(c2cc(Cl)cc(Cl)c2)(C(F)(F)F)C1)c1ccc(Cl)c(C(=O)NC2(C#N)CC2)c1 (stereo not drawn) [I-111, ethyl N-[4-chloro-3-[(1-cyanocyclopropyl)carbamoyl]phenyl]-N-[5-(3,5-dichlorophenyl)-5-(trifluoromethyl)-4H-isoxazol-3-yl]carbamate]
≥ 75%: mortality at 300 ppm (Plutella xylostella) | mortality at 300 ppm (Dichromothrips corbetti) | mortality at 300 ppm (Nezara viridula) | mortality at 300 ppm (Tetranychus kanzawai) | mortality at 300 ppm (Spodoptera eridania) | mortality at 300 ppm (Bemisia argentifolii)

O=C(Nc1ccc(F)cc1F)c1cc(NC2=NOC(c3cccc(C(F)(F)F)c3)(C(F)(F)F)C2)ccc1Cl (stereo not drawn) [I-38, 2-chloro-N-(2,4-difluorophenyl)-5-[[5-(trifluoromethyl)-5-[3-(trifluoromethyl)phenyl]-4H-isoxazol-3-yl]amino]benzamide]
≥ 75%: mortality at 2500 ppm [1] | mortality at 300 ppm (Plutella xylostella) | mortality at 300 ppm (Dichromothrips corbetti) | mortality at 300 ppm (Nezara viridula) | mortality at 300 ppm (Spodoptera eridania)

O=C(NC1C[S+]([O-])C1)c1cc(NC2=NOC(c3cc(Cl)c(F)c(Cl)c3)(C(F)(F)F)C2)ccc1Cl (stereo not drawn) [I-61, 2-chloro-5-[[5-(3,5-dichloro-4-fluoro-phenyl)-5-(trifluoromethyl)-4H-isoxazol-3-yl]amino]-N-(1-oxothietan-3-yl)benzamide]
≥ 75%: mortality at 300 ppm (Plutella xylostella) | mortality at 300 ppm (Dichromothrips corbetti) | mortality at 300 ppm (Tetranychus kanzawai) | mortality at 300 ppm (Spodoptera eridania)
